Values after ≈ are worked out from the molar mass of the structure shown. Like-named read-outs stand apart in the source and are kept apart here.
How the values were obtained:
[1] = tested on: Bursaphelenchus xylophilus; assay: whole plant or invertebrate
Method: Bursaphelenchus xylophilus is the pathogen of pine wilt disease, which results in the death of a great number of pines in the south of China. The laboratory activities of sixteen-membered macrolide compounds, including tenvermectin, avermectin, ivermectin, milbemycin, and emamectin benzoate etc, were tested using Bursaphelenchus xylophilus as the test pest, in order to compare the difference of activities among these reagents on Bursaphelenchus xylophilus.
Test reagents: 5 reagents, including 0.5% avermectin emulsifiable concentrate, 0.5% tenvermectin emulsifiable concentrate, 0.5% ivermectin emulsifiable concentrate, 2% milbemycin emulsifiable concentrate, and 2.5% emamectin benzoate microemulsion.
Experiment method: Dipping method was employed. For each reagent, 5 concentrations were tested, including 2, 5, 10, 20, and 50 mg/L. For each concentration, there were 3 repeats. The results were statistically analyzed at 24 h.

[2] = tested on: Bursaphelenchus xylophilus; assay: Activity of tenvermectin A/B of different ratios on Bursaphelenchus xylophilus; type: in vivo; conditions: for LC50: in vivo
Method: The activity of the mixture of tenvermectin A and tenvermectin B with different ratios was tested using Bursaphelenchus xylophilus as the test pest, in order to provide reference for modification and fermentation process of tenvermectin-producing bacteria.

citrus spider mite = assay: Prevention and control effect on citrus spider mite in field; type: in vivo, Panonychus citri McGregor; parameters: Amount of mites: unit not given here
Method: Citrus spider mite (i.e., Panonychus citri McGregor) is one of the primary insect pests for citrus. It has properties, such as small body, fast propagation and multiple generations, which will cause severe damage to citrus. Tenvermectin was prepared as 2% water dispersible granules for the test of prevention and control of citrus spider mite, so as to determine its effect in field.
Test reagents: 2% tenvermectin water dispersible granules (tenvermectin, ethanol and alkylphenol polyoxyethylene ether-formaldehyde condensate in a mass ratio of […]), and 2% avermectin emulsifiable concentrate
Experiment time: in early May, at the young fruit stage of citrus.
Experiment design: the reagents were diluted 2000-, 4000- and 8000-fold, to concentrations of 10 mg/L, 5 mg/L and 2.5 mg/L, respectively. For each concentration, there were 3 repeats. 10 citrus trees were comprised in one small area that was randomly arranged. Water was used as the control, in which 10 citrus trees were tested. 50 kg of reagent was sprayed for each concentration. The reagent was administrated on a sunny day with no rain in following 24 h.
Data analysis: in each small area, 5 trees were examined. For each tree, 2 branches, each located in the east, the south, the west, the north and the center of the tree, were investigated. For each branch, the amount of live mites was counted for total 5 leaves. The amount of live mites was counted before administration and on day 3, 5, 7 and 14 after administration respectively, to calculate the reduction rate of the mite population. The prevention and control effect in field was determined based on the result.

Tetranychus cinnabarinus = assay: Laboratory activity assay on Tetranychus cinnabarinus, leaf disc dipping method; type: in vivo; conditions: foliar
Method: (1) Laboratory activity assay of tenvermectin on Tetranychus cinnabarinus: the laboratory activity of tenvermectin was tested using Tetranychus cinnabarinus as the test pest, and using avermectin as the positive control. The activities were compared between tenvermectin and avermectin.
Test organism: Tetranychus cinnabarinus: it was inoculated to horsebean seedling and cultured under the conditions of artificial climate [(26±1)° C., RH (70±5)%, H/D14].
Test reagents: 96% (w/w) avermectin, 98% (w/w) tenvermectin (TEVA:TEVB=8:2): 1 g 96% avermectin and 98% tenvermectin were weighed and added to a beaker respectively, into which 93 g methanol and 6 g surfactant nonylphenol polyoxyethylene ether were added to give a preparation at a concentration of 10000 mg/L. The preparation was diluted with water into a series of concentrations: 0.005, 0.01, 0.025, and 0.05 mg/L for test.
Experiment method: leaf disc dipping method was employed: adult mites that were raised in laboratory with consistent physiological state were selected. The horsebean leaves with consistent growth condition were selected. 2 cm leaf-discs were prepared using a puncher. The leaf-disc was placed on absorbent cotton in the center of a plastic dish with the back of blade upwards. […] The number of adult mites was counted under a stereomicroscope 2 h later, and the number should not be less than 20 on each leaf disc in the dish. […]

[3] = 2 mg/L, 24 h, dipping, reagents applied as emulsifiable concentrate/microemulsion
[4] = 2.5 mg/L, 3 d after administration, field spray
[5] = 2.5 mg/L, 5 d after administration
[6] = 2.5 mg/L, 7 d after administration
[7] = 2.5 mg/L, 14 d after administration
[8] = 5.0 mg/L, 3 d after administration
[9] = 5.0 mg/L, 5 d after administration
[10] = 5.0 mg/L, 7 d after administration
[11] = 5.0 mg/L, 14 d after administration
[12] = 10.0 mg/L, 3 d after administration
[13] = 10.0 mg/L, 5 d after administration
[14] = 10.0 mg/L, 7 d after administration
[15] = 10.0 mg/L, 14 d after administration
[16] = Bursaphelenchus xylophilus, 24 h, read-out: Mortality at different concentrations

ivermectin
Mortality at different concentrations [1, 3]: 18.52% | Mortality at different concentrations ([1]; 5 mg/L, 24 h, dipping): 42.55% | Mortality at different concentrations ([1]; 10 mg/L, 24 h, dipping): 57.47% | Mortality at different concentrations ([1]; 20 mg/L, 24 h, dipping): 58.33% | Mortality at different concentrations ([1]; 50 mg/L, 24 h, dipping): 78.94% | LC50 ([1]; 24 h, dipping): 11.0629 µg/mL

emamectin benzoate
Mortality at different concentrations [1, 3]: 48.27% | Mortality at different concentrations ([1]; 5 mg/L, 24 h, dipping): 61.68% | Mortality at different concentrations ([1]; 10 mg/L, 24 h, dipping): 67.44% | Mortality at different concentrations ([1]; 20 mg/L, 24 h, dipping): 75% | Mortality at different concentrations ([1]; 50 mg/L, 24 h, dipping): 86.67% | LC50 ([1]; 24 h, dipping): 2.8055 µg/mL

tenvermectin A
LC50 [2]: 6.592 µg/mL

CC[C@H](C)[C@H]1O[C@]2(C=C[C@@H]1C)C[C@@H]1C[C@@H](C/C=C(\C)[C@@H](O[C@H]3C[C@H](OC)[C@@H](O[C@H]4C[C@H](OC)[C@@H](O)[C@H](C)O4)[C@H](C)O3)[C@@H](C)/C=C/C=C3\CO[C@@H]4[C@H](O)C(C)=C[C@@H](C(=O)O1)[C@]34O)O2 [avermectin]
Amount of mites (citrus spider mite; [4]): 2.0 | Effect (citrus spider mite; [4]): 80.5c | Amount of mites (citrus spider mite; [5]): 1.5 | Effect (citrus spider mite; [5]): 86.7b | Amount of mites (citrus spider mite; [6]): 1.8 | Effect (citrus spider mite; [6]): 87.3c | Amount of mites (citrus spider mite; [7]): 1.9 | Effect (citrus spider mite; [7]): 80.1b | Amount of mites (citrus spider mite; [8]): 0.4 | Effect (citrus spider mite; [8]): 91.2ab | Amount of mites (citrus spider mite; [9]): 1.0 | Effect (citrus spider mite; [9]): 87.3b | Amount of mites (citrus spider mite; [10]): 1.3 | Effect (citrus spider mite; [10]): 88.1c | Amount of mites (citrus spider mite; [11]): 1.4 | Effect (citrus spider mite; [11]): 80.4b | Amount of mites (citrus spider mite; [12]): 1.4 | Effect (citrus spider mite; [12]): 81.6c | Amount of mites (citrus spider mite; [13]): 1.1 | Effect (citrus spider mite; [13]): 90.6b | Amount of mites (citrus spider mite; [14]): 0.7 | Effect (citrus spider mite; [14]): 95.5c | Amount of mites (citrus spider mite; [15]): 5.3 | Effect (citrus spider mite; [15]): 83.0b | LC50 ([1]; Bursaphelenchus xylophilus, 24 h): 5.35 µg/mL (≈ 6130 nM) | mortality at 2 µg/mL [1, 16]: 43.2% | mortality at 5 µg/mL [1, 16]: 46.1% | mortality at 10 µg/mL [1, 16]: 63.1% | mortality at 20 µg/mL [1, 16]: 66.9% | mortality at 50 µg/mL [1, 16]: 78% | LC50 (Tetranychus cinnabarinus; 24 h): 0.0083 µg/mL (≈ 9.51 nM) | LC50 (Tetranychus cinnabarinus; read-out: LC50 on Tetranychus cinnabarinus): 0.0083 µg/mL (≈ 9.51 nM)

tenvermectin B
LC50 [2]: 3.4816 µg/mL | relative activity of tenvermectin A/B ratios on Bursaphelenchus xylophilus ([2]; in words): higher than that of tenvermectin A

milbemycin
LC50 ([1]; in vivo): 5.0123 µg/mL
